The target in the test is Neuraminidase (Influenza A virus, UniProt B4URF0). The test can be described thus: Inhibition of Influenza virus neuraminidase A. Further details: species or system unidentified influenza virus.

The values below come from ChEMBL document CHEMBL3217730, “Determination of structural requirements of influenza neuraminidase type A inhibitors and binding interaction analysis with the active site of A/H1N1 by 3D-QSAR CoMFA and CoMSIA modeling” (Medchemcomm, 2011).

Molecules are shown by their SMILES.

The term pIC50 denotes the negative decadic logarithm of the IC50, by convention in mol/L. High values mean a low IC50, low ones a high IC50.

Sequence of Neuraminidase (B4URF0 whole entry): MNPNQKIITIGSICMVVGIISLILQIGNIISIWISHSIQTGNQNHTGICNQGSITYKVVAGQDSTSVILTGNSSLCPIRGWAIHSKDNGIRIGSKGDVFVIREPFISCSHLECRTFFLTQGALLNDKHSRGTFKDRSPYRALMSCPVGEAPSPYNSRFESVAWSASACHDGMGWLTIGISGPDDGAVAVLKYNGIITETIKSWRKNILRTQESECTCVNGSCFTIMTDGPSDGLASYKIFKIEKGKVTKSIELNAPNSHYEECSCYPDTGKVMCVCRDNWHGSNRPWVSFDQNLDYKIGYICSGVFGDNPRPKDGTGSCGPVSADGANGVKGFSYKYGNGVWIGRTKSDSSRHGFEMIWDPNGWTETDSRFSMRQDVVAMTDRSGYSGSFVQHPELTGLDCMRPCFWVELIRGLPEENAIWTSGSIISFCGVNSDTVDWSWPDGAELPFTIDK

As to `CCCCCO[C@@H]1C=C(C(=O)O)C[C@H](N)[C@H]1NC(C)=O`, the IC50 runs as follows: (read-out: IC50) 200 µM; (read-out: pIC50 (converted)) 0.2 µM.
`CCC(CC)NC(=O)[C@H](NC(C)=O)[C@H]1CC(C(=O)O)C[C@@H]1NC(=N)N` (stereo partly drawn): for the setting “read-out: IC50”, the IC50 is 25 µM.
`CCN(CC)C(=O)[C@@H](NC(C)=O)[C@H]1CC(C(=O)O)C[C@@H]1NC(=N)N` (stereo partly drawn): the IC50 is 0.07 µM (read-out: IC50) and 0.00701 µM (read-out: pIC50 (converted)).
Take `CCCO[C@@H]1C=C(C(=O)O)C[C@H](N)[C@H]1NC(C)=O`: the IC50 by setting is: (read-out: IC50) 180 µM; (read-out: pIC50 (converted)) 0.18 µM.
For `CC[C@@H](Cc1ccccc1)O[C@@H]1C=C(C(=O)O)C[C@H](N)[C@H]1NC(C)=O`, in that order: 620 µM and 0.621 µM.
As to `CC(=O)N[C@H]1[C@H](OC(C)C)C(F)=C(C(=O)O)C[C@@H]1N`, for the setting “read-out: IC50”, the IC50 stood at 0.003 µM.
For `C=CC(=O)NC[C@H]1[C@@H](C(=O)O)[C@@H](N)CN1C(=O)N(CC)C(C)C`, the IC50 (read-out: IC50) was 96 µM.
With `CC(=O)N[C@@H]1[C@@H](N)CC(C(=O)O)=C[C@H]1OCCCc1ccc(-c2ccccc2)cc1`, the IC50 reads like this: (read-out: IC50) 90 µM; (read-out: pIC50 (converted)) 0.0902 µM.
Regarding `CC(=O)N[C@@H]1[C@@H](N)CC(C(=O)O)=C[C@H]1OCC(C)C`, the IC50 runs as follows: (read-out: IC50) 200 µM; (read-out: pIC50 (converted)) 0.2 µM.
`CC(C)N(CCO)C(=O)N1C[C@@H](N)[C@@H](C(=O)O)C1`: the IC50 (read-out: IC50) came to 21 µM.
On to `CC[C@H](C)O[C@@H]1C=C(C(=O)O)C[C@H](NC(=N)N)[C@H]1NC(C)=O`, for which the IC50 reads like this: (read-out: IC50) 0.5 µM; (read-out: pIC50 (converted)) 0.0005 µM.
Turning to `C=CC[C@H](CC)O[C@@H]1C=C(C(=O)O)C[C@H](N)[C@H]1NC(C)=O`, the IC50 is 1 µM (read-out: IC50) and 0.001 µM (read-out: pIC50 (converted)).
As for `CC[C@@H](CCC1CCCCC1)O[C@@H]1C=C(C(=O)O)C[C@H](N)[C@H]1NC(C)=O`, the IC50 is 1 µM (read-out: IC50) and 0.001 µM (read-out: pIC50 (converted)).
As for `CC[C@@H](CC1CCCCC1)O[C@@H]1C=C(C(=O)O)C[C@H](N)[C@H]1NC(C)=O`, the IC50 runs as follows: (read-out: IC50) 16 µM; (read-out: pIC50 (converted)) 0.016 µM.
`CC[C@H](C)O[C@@H]1C=C(C(=O)O)C[C@H](N)[C@H]1NC(C)=O`: the IC50 is 9 µM (read-out: IC50) and 0.00902 µM (read-out: pIC50 (converted)).
Turning to `CC(=O)N[C@@H]1[C@@H](N)CC(C(=O)O)=C[C@H]1Oc1ccccc1`, the IC50 runs as follows: (read-out: IC50) 530 µM; (read-out: pIC50 (converted)) 0.531 µM.
For `CO[C@@H]1C=C(C(=O)O)C[C@H](N)[C@H]1NC(C)=O`, in that order: 3700 µM and 3.71 µM.
Consider `CCC(=O)NC[C@H]1[C@@H](C(=O)O)[C@@H](N)CN1C(=O)N(CC)C(C)C`, for which the IC50 (read-out: IC50) came out at 16 µM.
For the molecule `CCN(C(=O)N1C[C@H](N)[C@H](C(=O)O)[C@@H]1CNC(C)=O)C(C)C`, under “read-out: IC50”, the IC50 came out at 7.5 µM.
Take `CCC(CC)C(=O)N1C[C@@H](N)[C@@H](C(=O)O)C1`: the IC50 (read-out: IC50) came to 22 µM.
Consider `CC(C)N(CCCCC(=O)O)C(=O)N1C[C@@H](N)[C@@H](C(=O)O)C1`, for which, under “read-out: IC50”, the IC50 is 1.3 µM.
With `CCCCCCC[C@H](CC)O[C@@H]1C=C(C(=O)O)C[C@H](N)[C@H]1NC(C)=O`, the IC50 runs as follows: (read-out: IC50) 1 µM; (read-out: pIC50 (converted)) 0.001 µM.
For `CC(=O)N[C@H]1[C@H](OC(C)C)C(C)=C(C(=O)O)C[C@@H]1N`, where the note is “read-out: IC50”, the IC50 is 2.3 µM.
For `CCN(C(=O)N1C[C@H](N)[C@H](C(=O)O)[C@@H]1CNC(=O)C(F)(F)F)C(C)C`, the IC50 (read-out: IC50) was found to be 0.28 µM.
As for `CCCN(CCC)C(=O)[C@@H](NC(C)=O)[C@H]1C[C@@](O)(C(=O)O)C[C@@H]1NC(=N)N`, the IC50 (read-out: IC50) was determined as 2300 µM.
For `CCN(CC)C(=O)N1C[C@@H](N)[C@@H](C(=O)O)C1`, the IC50 (read-out: IC50) was found to be 25 µM.
Same read-out and setting: the figure for `CCCN(CCC)C(=O)[C@@H](NC(C)=O)[C@H]1CC(C(=O)O)C[C@@H]1NC(=N)N` (stereo partly drawn) is 0.043 µM.
`CCO[C@@H]1C=C(C(=O)O)C[C@H](N)[C@H]1NC(C)=O`: the IC50 reads like this: (read-out: IC50) 2000 µM; (read-out: pIC50 (converted)) 2 µM.
As to `CCC(CC)NC(=O)[C@@H](NC(C)=O)[C@H]1CC(C(=O)O)C[C@@H]1NC(=N)N` (stereo partly drawn), the IC50 (read-out: IC50) is 0.06 µM.
Regarding `CC(C)N(CCc1ccccn1)C(=O)N1C[C@@H](N)[C@@H](C(=O)O)C1`, the IC50 (read-out: IC50) was 1.3 µM.
`CC(C)N(C(=O)N1C[C@@H](N)[C@@H](C(=O)O)C1)C(C)C`: the IC50 (read-out: IC50) was determined as 4 µM.
As for `CC[C@H](CCc1ccccc1)O[C@@H]1C=C(C(=O)O)C[C@H](N)[C@H]1NC(C)=O`, the IC50 is 12 µM (read-out: IC50) and 0.012 µM (read-out: pIC50 (converted)).
As for `CCCCCCCCCCO[C@@H]1C=C(C(=O)O)C[C@H](N)[C@H]1NC(C)=O`, the IC50 (read-out: IC50) was 600 µM and the IC50 (read-out: pIC50 (converted)) was 0.601 µM.
On to `CCC(C)O[C@@H]1C=C(C(=O)O)C[C@H](N)[C@H]1NC(C)=O` (stereo partly drawn), for which the IC50 (read-out: IC50) was 10 µM.
As for `CC(C)N(CCCC(=O)O)C(=O)N1C[C@@H](N)[C@@H](C(=O)O)C1`, the IC50 (read-out: IC50) is 19 µM.
The same measure, in the same setting: the figure for `CCCN(CCC)C(=O)[C@@H](NC(C)=O)[C@H]1C[C@](O)(C(=O)O)C[C@@H]1NC(=N)N` is 4.9 µM.
On to `CCCCCCCCCO[C@@H]1C=C(C(=O)O)C[C@H](N)[C@H]1NC(C)=O`, for which the IC50 by setting is: (read-out: IC50) 210 µM; (read-out: pIC50 (converted)) 0.21 µM.
Turning to `CC[C@@H](CCc1ccccc1)O[C@@H]1C=C(C(=O)O)C[C@H](N)[C@H]1NC(C)=O`, the IC50 is, setting by setting: (read-out: IC50) 0.3 µM; (read-out: pIC50 (converted)) 0.000301 µM.
As for `CCCCCCCCO[C@@H]1C=C(C(=O)O)C[C@H](N)[C@H]1NC(C)=O`, the IC50 (read-out: IC50) turned out to be 180 µM and the IC50 (read-out: pIC50 (converted)) was 0.18 µM.
Consider `CCN(C(=O)N1C[C@@H](N)[C@@H](C(=O)O)C1)C(C)C`, for which the IC50 reads like this: (read-out: IC50) 1.6 µM; (read-out: pIC50 (converted)) 1.06 µM.
Take `CCCN(CCC)C(=O)N1C[C@@H](N)[C@@H](C(=O)O)C1`: for the setting “read-out: IC50”, the IC50 came out at 32 µM.
As for `CCCC[C@@H](NC(C)=O)[C@@H]1CC(C(=O)O)C[C@H]1NC(=N)N` (stereo partly drawn), the IC50 (read-out: IC50) is 14.6 µM.
Regarding `CCCCO[C@@H]1C=C(C(=O)O)C[C@H](N=C(N)N)[C@H]1NC(C)=O`, the IC50 by setting is: (read-out: IC50) 3 µM; (read-out: pIC50 (converted)) 0.00301 µM.
On to `CCCC[C@@H](NC(C)=O)[C@@H]1CC(C(=O)O)C[C@@H]1NC(=N)N` (stereo partly drawn), for which the IC50 (read-out: IC50) turned out to be 0.013 µM.
With `CCCO[C@@H]1C=C(C(=O)O)C[C@H](N=C(N)N)[C@H]1NC(C)=O`, the IC50 is 2 µM (read-out: IC50) and 0.002 µM (read-out: pIC50 (converted)).
On to `CCCCCCCO[C@@H]1C=C(C(=O)O)C[C@H](N)[C@H]1NC(C)=O`, for which the IC50 was 270 µM (read-out: IC50) and 0.27 µM (read-out: pIC50 (converted)).
For `CC(C)N(CCCO)C(=O)N1C[C@@H](N)[C@@H](C(=O)O)C1`, the pIC50 came to 5.677.
`CC[C@@H](C)O[C@@H]1C=C(C(=O)O)C[C@H](NC(=N)N)[C@H]1NC(C)=O`: the IC50 by setting is: (read-out: IC50) 0.5 µM; (read-out: pIC50 (converted)) 0.0005 µM.
Turning to `CC(=O)N[C@@H]1[C@@H](N)[C@H](C)C(C(=O)O)=C[C@H]1OC(C)C`, the IC50 (read-out: IC50) worked out at 1.5 µM.
Consider `CC(=O)N[C@H]1[C@H](O)C=C(C(=O)O)C[C@@H]1N`, for which the IC50 (read-out: IC50) was 6300 µM.
On to `CCCCCCO[C@@H]1C=C(C(=O)O)C[C@H](N)[C@H]1NC(C)=O`, for which the IC50 is 150 µM (read-out: IC50) and 0.15 µM (read-out: pIC50 (converted)).
As for `CC(C)N(CCN)C(=O)N1C[C@@H](N)[C@@H](C(=O)O)C1`, the IC50 (read-out: IC50) came to 46 µM.
For `CC(=O)N[C@@H]1[C@@H](N)CC(C(=O)O)=C[C@H]1OC1CCCCC1`, the IC50 runs as follows: (read-out: IC50) 60 µM; (read-out: pIC50 (converted)) 0.0601 µM.
With `CC(C)N(CCCCCO)C(=O)N1C[C@@H](N)[C@@H](C(=O)O)C1`, under “read-out: IC50”, the IC50 is 2 µM.
As to `CCCCO[C@@H]1C=C(C(=O)O)C[C@H](N)[C@H]1NC(C)=O`, the IC50 reads like this: (read-out: IC50) 300 µM; (read-out: pIC50 (converted)) 0.301 µM.
Consider `CC(=O)N[C@@H]1[C@@H](N)CC(C(=O)O)=C[C@H]1OC(C)C`, for which, under “read-out: IC50”, the IC50 stood at 0.001 µM.
Turning to `CCN(C(=O)N1C[C@H](N)[C@H](C(=O)O)[C@@H]1CNS(C)(=O)=O)C(C)C`, where the note is “read-out: IC50”, the IC50 was 130 µM.
On the same count and under the same terms, the figure for `CCN(C(=O)N1C[C@H](C(=O)O)[C@H](NC(=N)N)C1)C(C)C` is 13 µM.
Take `CC(=O)N[C@H]1[C@H](O)C=C(C(=O)O)C[C@@H]1N=C(N)N`: the IC50 is 100 µM (read-out: IC50) and 0.1 µM (read-out: pIC50 (converted)).
